Results: patent US9149488B2, “Pharmaceutical composition and use of diethyl (2-cyanoethyl)phosphonate” (Olatec Industries LLC, priority 2013, dated 2015)
Read-outs that look alike come from different tables or passages of the source.

Assays:
[1] = tested on: arachidonic acid-induced ear swelling; assay: Topical arachidonic acid-induced ear swelling model in mice (topical administration); assay type: in vivo, Male ICR mice
Method: Diethyl(2-cyanoethyl)phosphonate, was obtained from Sigma-Aldrich and used in this experiment.
The test compound, indomethacin (positive control), and vehicle (acetone:ethanol/1:1) were evaluated for anti-inflammatory activity in a topical arachidonic acid-induced ear swelling model in mice.
Male ICR mice weighing 22±2 g were used and randomly divided; the test compound and vehicle control had 10 mice, and indomethacin had 5 mice. Arachidonic Acid (0.5 mg in 20 μl of acetone:ethanol/1:1) was applied topically to the anterior and posterior surfaces of the right ear of each mice. Test substances (in vehicle) and vehicle, as listed in Table 1 were similarly applied 30 min before and 15 min after arachidonic acid application. The thickness of the right ear and the left ear was measured and the difference calculated as an indication of the inflammation in the right ear. Ear swelling was measured by a Dyer model micrometer gauge at 60 and 90 minutes after arachidonic acid application as an index of inflammation. Percent inhibition was calculated according to the formula: Ic−It/Ic×100, where Ic and It refers to increase of ear thickness (mm) in control and treated mice, respectively. An ANOVA was done, and if p<0.05, a Dunnett's t test was employed to calculate significant difference between vehicle control and test compound treated groups. […]

[2] = tested on: arachidonic acid-induced ear swelling; assay: Arachidonic acid-induced ear swelling in mice (intraperitoneal administration); assay type: in vivo; conditions: measured at 90 minutes
Method: The protocols of this experiment were similar to Example 3, except the following differences. Test substance diethyl(2-cyanoethyl)phosphonate was dissolved in PBS to generate 1, 3 and 10 mg/mL testing solutions. Vehicle (PBS) at 10 mL/kg and diethyl(2-cyanoethyl)phosphonate at 10 mL/kg (10, 30, and 100 mg/kg) were administered intraperitoneally at 1 hour, and again 15 minutes before arachidonic acid (0.5 mg/ear) challenge. The positive control dexamethasone was administered orally 3 hours before arachidonic acid.
An ANOVA was done, and if p<0.05, a Dunnett's t test was employed to calculate significant difference between vehicle control and treated groups. Significance is set at P<0.05 level.
(§1) An ANOVA was done, and if p<0.05, a Dunnett's t test was employed to calculate significant difference between vehicle control and test compound treated groups. A pairwise Student's t test was used to calculate differences between the dexamethasone group and the control group. Significance is set at P<0.05 level.

[3] = tested on: tail flick response to heat stimulus (49° C. water bath); assay: Tail flick test in mice (oral administration); assay type: in vivo
Method: Tail flick test is a test of the pain response in animals. Tail flick test is used in basic pain research and to measure the effectiveness of analgesics, by observing the tail flick reaction to heat in an animal. This test assesses the nociceptive response to a local pain stimulus, and the ability of a drug to inhibit this response.
Vehicle control (water) and test compound diethyl(2-cyanoethyl)phosphonate in water were administered by oral gavage to mice with a volume of 10 mL/kg, twice, at 60 and 15 minutes before the first tail flick measurement. The test compound was administered at a dosage of 10, 30, or 100 mg/kg in water. The positive control compound morphine was administered by subcutaneous injection at 8 mg/kg with a volume of 8 mL/kg, at 15 minutes before the first tail flick measurement. Each group had 10 mice.
The response of mice to heat stimulus was evaluated by measuring the time of tail-flick or tail-flick latency from 49° C. water bath. Briefly, the animal was placed in a restrainer with its tail hanging down. Approximately 2 inches of the tail was immersed in a beaker of water at 38±1° C. for about 30 seconds, and this was done twice to acclimate the animal to the procedure.
Subsequently, approximately 2 inches of the tail was immersed in a beaker of water at 49±1° C., at which point a timer was started.
Tail flick measurements were made 60, 80, 100, and 120 minutes post administration of the first dosage of test compound. An ANOVA was done, and if p<0.05, a Dunnett's t test was employed to calculate significant difference between vehicle control and test compound treated groups. A pairwise Student's t test was used to calculate differences between the morphine group and the control group. […] Analysis with p-values <0.05 is considered significant.

[4] = tested on: formalin-induced paw licking; assay: Formalin test in mice (oral administration); assay type: in vivo, Male CD-1 mice
Method: Formalin test is a model of continuous pain resulting from formalin-induced tissue injury. Nociceptive and inflammatory pain was induced by injection of a dilute formalin solution into the paw, resulting in nocifensive behavior including paw flinching. The formalin model encompasses inflammatory, neurogenic, and central mechanism of pain. The early phase of pain (from 0 to about 10 minutes) is due to nociceptive mechanism and the late phase of pain (from 10-40 minutes) is due to a combination of inflammatory pain and nociceptive mechanism. Pain behavior is assessed using manual paw licking measurements. The endpoints of the study are the number of paw licking events. (Hunskaar et al., Pain, 30:103-114, 1987; Li et al., Molecular Pain, 6:11, 2010)
Male CD-1 mice, about 34 g, were used in the study. Mice had free access to food and water, were maintained on a 12 hour: 12 hour light/dark schedule for the entire duration of the study, and housed in soft bedding five per cage.
Immediately prior to testing (at time 0), mice were restrained in a cloth and injected with 20 μL of a 5% formalin solution, subcutaneously into the dorsal surface of the left hind paw. Vehicle control (n=10, water) and test compound diethyl(2-cyanoethyl)phosphonate (n=9, in water) and were administered by oral gavage with a volume of 10 mL/kg to mice. The amounts of test compound were 10, 30, or 100 mg/kg per dose.
Positive control morphine was administered by subcutaneous injection at 4 mg/kg with a volume of 4 mL/kg to mice (n=10). […] The purpose of morphine is not to serve as a comparison with the test compound.
Morphine was subcutaneously administered once 15 minutes before formalin injection. The test compounds and vehicle control were orally administered twice (BID), at 60 and 15 minutes before formalin injection at time zero.
Following formalin injection, animals were placed in individual cages, and manually observed for 60 minutes. The licking events were recorded in five minute intervals continuously for a total of 60 minutes.
as §1, with “The number of licking events per minute was calculated between 0-10 minutes and 10-40 minutes for vehicle, positive control, and test compound. An” for “An”, “morphine” for “dexamethasone”

[5] = tested on: formalin-induced paw licking
Method: The test compound diethyl(2-cyanoethyl)phosphonate (375 mM in vehicle, n=16) and vehicle control (acetone:ethanol 1:1, n=16) were administered topically by submerging the mouse left hind paw in the respective solution for about 30 seconds. The paw was then withdrawn and wiped with tissue to avoid excess dermal drying.
Positive control morphine was administered by subcutaneous injection at 4 mg/kg with a volume of 4 mL/kg to mice (n=16).
Morphine was subcutaneously administered once 15 minutes before formalin injection. The test compounds and vehicle control were topically administered twice (BID), at 90 and 15 minutes before formalin injection.
Following formalin injection, animals were placed in individual cages, and manually observed for 60 minutes. The licking events were recorded in five minute intervals continuously for a total of 40 minutes.
The number of licking events per minute was calculated between 0-10 minutes and 10-40 minutes for vehicle, positive control, and test compound. A two-sample t-test was done to compare the vehicle group with the test compound group. Significance is set at P<0.05 level. The same statistics were done comparing the vehicle group with the positive control group.

[6] = tested on: IL-6, TNFα, IFNγ, MIP-2 and RANTES; assay: Pro-inflammatory cytokine release in rat challenged in vivo with lipopolysaccharide; conditions: given orally to rat, then lipopolysaccharide challenge in vivo

SMILES: CCOP(=O)(CCC#N)OCC [Diethyl (2-cyanoethyl) phosphonate, Diethyl(2-cyanoethyl)phosphonate]
- Anti-inflammatory activity in mouse ear swelling model ([1]; applied topically, inflammation induced by arachidonic acid): anti-inflammatory
- % Inhibition of ear swelling ([1]; topical, 375 mM in acetone:ethanol (1:1), 20 μL (1.4 mg/ear) applied twice, 90 minutes after arachidonic acid): 55%
- % Inhibition of ear swelling ([2]; 10 mg/kg intraperitoneally at 1 hour and 15 minutes before arachidonic acid): −8%
- % Inhibition of ear swelling ([2]; 30 mg/kg intraperitoneally at 1 hour and 15 minutes before arachidonic acid): 0%
- % Inhibition of ear swelling ([2]; 100 mg/kg intraperitoneally at 1 hour and 15 minutes before arachidonic acid): 34%
- % Inhibition of ear swelling ([2]; 100 mg/kg intraperitoneally at 1 hour and 15 minutes before arachidonic acid, listed as tested compound): 37%
- Tail flick latency compared with vehicle-treated mice ([3]; 30 mg/kg oral, given twice, measured at 60, 80, 100, 120 minutes, FIG. 1): statistically significant tail flick latency at 60 and 80 minutes
- Tail flick latency compared with vehicle-treated mice ([3]; 100 mg/kg oral, given twice, measured at 60, 80, 100, 120 minutes, FIG. 1): statistically significant tail flick latency at 60 and 100 minutes
- Licks per min (Between 0-10 min) ([4]; 100 mg/kg oral BID, early phase): 3.1 Licks per min
- Licks per min (Between 10-40 min) ([4]; 100 mg/kg oral BID, late phase): 0.59 Licks per min
- Duration of efficacy ([4]; 100 mg/kg oral BID, after 40 minutes): did not last after 40 minutes
- Difference in the number of events vs control ([4]; 100 mg/kg oral BID, early phase 0-10 minutes): no statistically significant difference
- Reduction in the number of events vs vehicle ([4]; 100 mg/kg oral BID, late phase 10-40 minutes): statistically significant (p<0.05) reduction
- Licks per min (Between 0-10 min) ([5]; 375 mM topical BID (paw submerged), early phase): 4.0 Licks per min
- Licks per min (Between 10-40 min) ([5]; 375 mM topical BID (paw submerged), late phase): 1.1 Licks per min
- Difference in the number of events vs control ([5]; 375 mM topical, early phase 0-10 minutes): no statistically significant difference
- Reduction in the number of events vs vehicle ([5]; 375 mM topical, late phase 10-40 minutes): statistically significant (p<0.05) reduction
- Paw licking events after topical application alone ([5]; topical application without injection of formalin): negligible number of paw licking events
- Inhibition of pro-inflammatory cytokine release (IL-6, TNFα, IFNγ, MIP-2 and RANTES) [6]: effective in inhibiting pro-inflammatory cytokine release

SMILES: CN1CC[C@]23c4c5ccc(O)c4O[C@H]2[C@@H](O)C=C[C@H]3[C@H]1C5 [Morphine, morphine, reference compound]
- Tail flick latency compared with vehicle-treated mice ([3]; mouse, in vivo): statistically significant tail flick latency at all measured time points
- Duration of efficacy ([4]; mouse, in vivo): did not last after 40 minutes
- Licks per min (Between 0-10 min) ([4]; mouse, in vivo): 2.1 Licks per min
- Licks per min (Between 10-40 min) ([4]; mouse, in vivo): 0.47 Licks per min
- Reduction in the number of events vs vehicle ([4]; mouse, in vivo): statistically significant (p<0.05) reductions
- Licks per min (Between 0-10 min) ([5]; mouse, in vivo): 2.5 Licks per min
- Licks per min (Between 10-40 min) ([5]; mouse, in vivo): 0.53 Licks per min
- Reduction in the number of events vs vehicle ([5]; mouse, in vivo): statistically significant (p<0.05) reductions
